Data as given in ChEMBL document CHEMBL5050844 (2019).

Assays:
[1] = target: E3 ubiquitin-protein ligase CBL-B (Homo sapiens, UniProt Q13191); assay: Inhibition of N-terminal Avi-tagged human CBL-B (36 to 427 residues) incubated with 60 nM Src kinase for 1.5 hrs followed by incubation with fluorescently labeled UbcH5B-Ub for 1 hr and measured by TR-FRET assay; type: single protein
[2] = Induction of anti-CD3/CD28 antibodies-stimulated human T cell activation at 4 uM assessed fold increase in IL-2 secretion measured by ELISA assay; type: functional, T cell line
[3] = Induction of anti-CD3/CD28 antibodies-stimulated human T cell activation at 1 uM assessed fold increase in IL-2 secretion measured by ELISA assay; type: functional, T cell line
[4] = Induction of anti-CD3/CD28 antibodies-stimulated human T cell activation at 0.3 uM assessed fold increase in IL-2 secretion measured by ELISA assay; type: functional, T cell line
[5] = Induction of anti-CD3 antibodies-stimulated human T cell activation at 8 uM assessed fold increase in IL-2 secretion measured by ELISA assay; type: functional, T cell line; also: reference of the scale not given here
[6] = Induction of anti-CD3 antibodies-stimulated human T cell activation at 1 uM assessed fold increase in IL-2 secretion measured by ELISA assay; type: functional, T cell line; also: reference of the scale not given here
[7] = Induction of anti-CD3/CD28 antibodies-stimulated human T cell activation at 4 uM assessed fold increase in CD25 expression measured by ELISA assay; type: functional, T cell line
[8] = Induction of anti-CD3/CD28 antibodies-stimulated human T cell activation at 1 uM assessed fold increase in CD25 expression measured by ELISA assay; type: functional, T cell line
[9] = Induction of anti-CD3/CD28 antibodies-stimulated human T cell activation at 0.3 uM assessed fold increase in CD25 expression measured by ELISA assay; type: functional, T cell line
[10] = Induction of anti-CD3 antibodies-stimulated human T cell activation at 8 uM assessed fold increase in CD25 expression measured by ELISA assay; type: functional, T cell line; also: reference of the scale not given here
[11] = Induction of anti-CD3 antibodies-stimulated human T cell activation at 1 uM assessed fold increase in CD25 expression measured by ELISA assay; type: functional, T cell line; also: reference of the scale not given here

Sequence of E3 ubiquitin-protein ligase CBL-B (Q13191 whole entry, the tested form may be a part): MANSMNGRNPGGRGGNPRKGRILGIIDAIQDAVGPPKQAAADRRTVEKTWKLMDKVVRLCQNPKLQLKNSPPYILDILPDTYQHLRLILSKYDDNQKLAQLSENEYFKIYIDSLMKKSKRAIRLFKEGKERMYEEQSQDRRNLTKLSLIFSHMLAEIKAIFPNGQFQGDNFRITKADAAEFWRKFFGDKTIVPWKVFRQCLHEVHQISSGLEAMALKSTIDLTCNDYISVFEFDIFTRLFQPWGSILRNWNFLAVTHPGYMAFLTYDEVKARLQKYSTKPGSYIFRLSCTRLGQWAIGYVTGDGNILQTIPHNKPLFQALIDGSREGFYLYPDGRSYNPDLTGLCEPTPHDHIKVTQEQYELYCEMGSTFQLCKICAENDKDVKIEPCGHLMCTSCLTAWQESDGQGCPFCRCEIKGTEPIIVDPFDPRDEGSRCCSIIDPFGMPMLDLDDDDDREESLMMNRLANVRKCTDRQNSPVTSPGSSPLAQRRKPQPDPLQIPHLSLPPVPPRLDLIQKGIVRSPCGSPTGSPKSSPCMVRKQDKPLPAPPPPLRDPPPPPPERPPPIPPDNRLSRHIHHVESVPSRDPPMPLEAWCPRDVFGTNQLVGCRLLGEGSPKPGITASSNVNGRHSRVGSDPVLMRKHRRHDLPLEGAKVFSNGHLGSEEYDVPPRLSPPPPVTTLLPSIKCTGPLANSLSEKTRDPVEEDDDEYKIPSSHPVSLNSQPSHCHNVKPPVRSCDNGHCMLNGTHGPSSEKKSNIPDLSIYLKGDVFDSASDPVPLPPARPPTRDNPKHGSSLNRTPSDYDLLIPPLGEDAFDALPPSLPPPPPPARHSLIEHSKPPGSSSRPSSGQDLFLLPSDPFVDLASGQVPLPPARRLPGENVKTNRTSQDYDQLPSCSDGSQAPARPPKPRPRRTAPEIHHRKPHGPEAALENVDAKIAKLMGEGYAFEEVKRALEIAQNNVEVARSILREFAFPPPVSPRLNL

SMILES | IC50 [1] [nM] | fold change (FC) [2] | fold change (FC) [3] | fold change (FC) [4] | fold change (FC) [5] | fold change (FC) [6] | fold change (FC) [7] | fold change (FC) [8] | fold change (FC) [9] | fold change (FC) [10] | fold change (FC) [11]
C[C@H](Cc1nncn1C)c1cccc(NC(=O)c2cccc(C(F)(F)F)n2)c1 | < 100 | >=7.5 | 5 | 2.51 | >=0.201 | >=0.201 | >=1.76 | >=1.76 | >=1.76 | >=1.001 | >=1.001
C[C@H](Cc1nncn1C)c1cccc(NC(=O)c2nc3c(C(F)(F)F)cccc3[nH]2)c1 | < 100 | >=7.5 | 5 | 2.51 | >=0.201 | >=0.201 | >=1.76 | 1.51 | 1.01 | >=1.001 | >=1.001
C[C@@H](c1cc2c(c(C(F)(F)F)c1)CN(c1cccc(C3(Cc4nncn4C)COC3)c1)C2=O)N1CCC(F)(F)C1 | < 100 | >=7.5 | >=7.5 | 2.51 | >=0.201 | 0.151 | 1.31 | 1.31 | 1.31 | >=1.001 | >=1.001
C[C@H](Cc1nncn1C)c1cccc(NC(=O)c2cc(O[C@@H]3CC[C@@H](O)C3)ccn2)c1 (relative stereo) | < 100 | 5 | 2.51 | 2.51 | 0.101 | 0.051 | 1.31 | 1.01 | 1.01 | >=1.001 | 0.801
Cn1cnnc1CC1(c2cccc(N3Cc4c(cc(CN5C[C@@H](F)[C@@H](F)C5)cc4C(F)(F)F)C3=O)c2)COC1 | < 100 | >=7.5 | >=7.5 | >=7.5 | >=0.201 | 0.151 | 1.51 | 1.31 | 1.31 | >=1.001 | 0.801
CC(=O)N1CCN(c2ccc3cnc(C(=O)Nc4cccc([C@H](C)Cc5nncn5C)c4)cc3c2)CC1.O=C(O)C(F)(F)F | < 100 | >=7.5 | 5 | 2.51 | >=0.201 | >=0.201 | 1.51 | 1.01 | 1.01 | >=1.001 | 0.601
Cc1cc(C(=O)Nc2cccc([C@H](C)Sc3nncn3C)c2)nc(C(F)(F)F)c1 | < 100 | 2.51 | 1.01 | 1.01 | 0.101 | <=0.05 | 1.01 | 1.01 | 1.01 | >=1.001 | 0.601
Cn1cnnc1C(F)(F)[C@](C)(F)c1cccc(N2Cc3c(cc(CN4C[C@@H](F)[C@@H](F)C4)cc3C(F)(F)F)C2=O)c1 | < 100 | >=7.5 | 5 | 2.51 | >=0.201 | 0.151 | 1.51 | 1.31 | 1.31 | >=1.001 | >=1.001
C[C@H](Sc1nncn1C)c1cccc(NC(=O)c2cc(C3CC3)cc(C(F)(F)F)n2)c1 | < 100 | 2.51 | 1.01 | 1.01 | 0.101 | <=0.05 | 1.01 | 1.01 | 1.01 | >=1.001 | 0.801
Cc1cc(C(=O)Nc2cccc(C3(Cc4nncn4C)COC3)c2)nc(C2CCC2)n1 | < 100 | >=7.5 | 5 | 1.01 | >=0.201 | 0.151 | 1.31 | 1.01 | 1.01 | >=1.001 | 0.801
Cn1cnnc1CC1(c2cccc(N3Cc4c(cccc4C(F)(F)F)C3=O)c2)COC1 | < 100 | >=7.5 | 2.51 | 1.01 | 0.101 | 0.051 | 1.31 | 1.01 | 1.01 | >=1.001 | 0.801
C[C@H](Cc1nncn1C)c1cccc(N2Cc3c(cc(C(=O)N4CC(O)C4)cc3C3CC3)C2=O)c1 | < 100 | 2.51 | 1.01 | 1.01 | >=0.201 | 0.151 | 1.01 | 1.01 | 1.01 | >=1.001 | 0.801
CC(O)c1cc2c(c(C(F)(F)F)c1)CN(c1cccc([C@@](C)(F)C(F)(F)c3nncn3C)c1)C2=O (stereo not given in full) | < 100 | 5 | 1.01 | 1.01 | >=0.201 | 0.051 | 1.01 | 1.01 | 1.01 | >=1.001 | 0.801
Cn1cnnc1CC1(c2cccc(N3Cc4c(cc(CO)cc4C(F)(F)F)C3=O)c2)COC1 | < 100 | >=7.5 | 5 | 2.51 | 0.051 | 0.101 | 1.51 | 1.31 | 1.01 | 0.601 | 0.601
COc1ccc(C(=O)Nc2cccc([C@H](C)Sc3nncn3C)c2)nc1C1CC1 | < 100 | 2.51 | 1.01 | 1.01 | 0.101 | <=0.05 | 1.01 | 1.01 | 1.01 | >=1.001 | 0.601
